Legend:
[1] = system: pancreatic islets; assay: Evaluation of damages in pancreatic islets (AO/PI staining, viability); assay type: cell-based, rats; settings: AO/PI fluorescence area, n=8 in each group; islets separated in Example 1
Excerpt: The degree of damage of pancreatic islets can be evaluated based on whether or not a barrier function of the cell membrane can be maintained. Then, the pancreatic islets of each group separated in Example 1 (n=8 in each group) was stained with acridine orange (AO) and propidium iodide as fluorescent dye. Note here that AO is taken in cells even in living cells to emit green fluorescence, and PI is taken into cells by failure of the barrier function of the cell membrane and bound to DNA to emit red fluorescence. Specifically, AO (10 μM) and PI (15 μM) were dissolved in PBS to form a solution, the pancreatic islets were incubated in the resultant solution for 10 minutes, and then the pancreatic islets were observed under fluorescence microscope. Then, by using image analysis software (Image J free software), an area of the green fluorescence and an area of the red fluorescence were obtained, the rate (%) of the area of green fluorescence excluding the area of the red fluorescence was defined as the viability (%) of pancreatic islet.

[2] = system: pancreatic islets; assay: Secretion of insulin by glucose stimulation (ELISA); assay type: cell-based, rats; settings: 60 minutes, islets 150 to 200 μm, n=10
Experimental: As a medium, RPMI1640 medium containing 3.3 mM glucose and 0.1% fetal bovine serum was used, and conditions were set at 37° C. and in 5% CO2/95% air condition. In measurement, the Transwell medium on which pancreatic islets were placed was subjected to RPMI1640 medium containing 3.3 mM glucose and 0.1% fetal bovine serum, and pre-cultured for 60 minutes. Note here that the culture was carried out at 37° C. and in 5% CO2/95% air conditions. Thereafter, the Transwell medium on which pancreatic islets were placed was moved to a new well containing the similar medium and stood still for 60 minutes (sample A). […] Thereafter, the media of the sample A and the sample B were recovered, and insulin contained in the medium was measured by using an insulin measurement kit (manufactured by Morinaga Biochemical Lab, Inc.) using the ELISA method. Then, the value obtained by dividing the insulin level of the sample B by the insulin level of the sample A was defined as an insulin secretion stimulation index.

[3] = system: pancreatic islets; assay: Separation of pancreatic islets from rats with the enzyme solution: yield of pancreatic islets; assay type: cell-based; settings: per rat, n=8; collagenase (2 mg/mL) Hanks' solution infused via pancreatic duct, 37° C. 32 minutes; DIDS 200 μM or NaCl substituted with sodium glutamate
Experimental: The rats were grouped into three groups (a control group, a DIDS group, a low Cl^− group) each including 8 rats, then abdominal section was carried out to each rat under ether anesthesia, the choledoch duct was clamped in the vicinity of the entrance of the duodenum, and cannula was inserted. Then, 12 mL of Hanks' solution (NaCl: […], KCl: 400 mg/mL, MgSG4: 48.8 mg/mL, MgCl2: 46.8 mg/mL, CaCl2: 140 mg/mL, KH2PO4: 60 mg/mL, Na HPO4: 47.9 mg/mL and glucose: 1000 mg/mL) containing collagenase (2 mg/mL) was infused into the pancreas via the pancreatic duct from the cannula. However, to the DIDS group, DIDS (200 μM) as a chloride ion channel inhibitor was further added, and to the low Cl^− group, sodium chloride in the Hanks' solution was substituted with sodium glutamate.
The pancreas that had been swollen by infusion of the solution was extracted, and incubated at 37° C. for 32 minutes. Thereafter, degraded tissue was placed into 50 mL conical tube, and the Hanks' solution at 4° C. was added so as to stop the enzyme reaction. The tube was gently shaken, and subjected to centrifugation at 320G for 10 to 15 seconds. […]
For the yield of the pancreatic islets, IEQ (islet equivalents; the number of pancreatic islets based on the diameter of 150 μm) as a unit is used. […] Note here that the number of pancreatic islets whose diameter was less than 50 μm was not counted.

[4] = system: diabetes model SCID mice; assay: Transplantation of pancreatic islets to diabetes model SCID mice; assay type: in vivo
Experimental: Note here that in the following Examples, rats at an age of 9 to 10 weeks were used as a donor of the pancreatic islets. Furthermore, as a recipient, SCID mice at an age of 9 to 10 weeks were used. Streptozocin (STZ; 250 mg/kg) was intraperitoneally administered to SCID mice under anesthesia of diethyl ether, and β cells were destroyed to induce diabetes. Mice whose casual blood glucose level exceeds 350 mg/dL for two continuous days were regarded as diabetes mice, and they were used as the recipients. […] For the screening of the diabetes model SCID mice, mice whose casual blood glucose level exceeds 350 mg/dL for two continuous days by collection of blood were employed. In transplantation, the mice were subjected to ether anesthesia, and pancreatic islet was infused into the renicapsule of the left kidney by using a 250 μL pipette tip. After transplantation, the blood was recovered every day for the first seven days, and the blood glucose level was measured, and thereafter, the blood glucose level was measured three times a week. Then, on Day 30 after transplantation, the pancreatic islet-transplanted kidney was extracted. Note here that the definition of cure of diabetes was a case in which the blood glucose level was less than 150 mg/dL for three continuous days and the blood glucose level after nephrectomy was increased to more than 250 mg/dL.

O=S(=O)([O-])c1cc(N=C=S)ccc1C=Cc1ccc(N=C=S)cc1S(=O)(=O)[O-].[Na+].[Na+] [DIDS, 4,4′-di(isothiocyano)stilbene-2,2′-disodium disulfonate]
viability of the pancreatic islets [1]: 84.9±4.9% | insulin secretion sample A (3.3 mM glucose) ([2]; 3.3 mM glucose): 1.94 ± 0.44 μU | insulin secretion sample B (20 mM glucose) ([2]; 20 mM glucose): 19.0 ± 4.46 μU | yield of the pancreatic islets [3]: 1969±244 IEQ | blood glucose level on Day 1 to 2 after the transplantation ([4]; 200 IEQ islets transplanted to renicapsule of left kidney, STZ diabetes SCID mice, n=5): 78.7 ± 52.7 mg/dL | mice that came to have a normal blood glucose (<150 mg/dL) ([4]; 200 IEQ islets transplanted, n=5 in each group): all of five mice

— patent publication US20130217094A1, “ENZYME SOLUTION FOR SEPARATING CELL, METHOD FOR SEPARATING CELL AND METHOD FOR SEPARATING PANCREATIC ISLET” (BIO LINK, INCORPORATED, priority 2010, published 2013)
